From US10189830B2, “Alkyl-heteroaryl substituted quinone derivatives for treatment of oxidative stress disorders” (BioElectron Technology Corporation, priority 2013, dated 2019)
Where two headings read alike, the source gives them in different places.

Tested on: Human dermal fibroblasts from Friedreich's Ataxia patients
Experiment: Rescue of BSO-stressed FRDA fibroblasts (Calcein AM viability screen)
Type: cell-based
Details: FRDA fibroblasts GM04078, 1 mM BSO, 48 h
Method: An initial screen was performed to identify compounds effective for the amelioration of redox disorders. Test samples, 4 reference compounds (idebenone, decylubiquinone, Trolox and alpha-tocopherol), and solvent controls were tested for their ability to rescue FRDA fibroblasts stressed by addition of L-buthionine-(S,R)-sulfoximine (BSO), as described in Jauslin et al., Hum. Mol. Genet. 11(24):3055 (2002), Jauslin et al., FASEB J. 17:1972-4 (2003), and International Patent Application WO 2004/003565. […] This specific BSO-mediated cell death can be prevented by administration of antioxidants or molecules involved in the antioxidant pathway, such as alpha-tocopherol, selenium, or small molecule glutathione peroxidase mimetics. However, antioxidants differ in their potency, i.e. the concentration at which they are able to rescue BSO-stressed FRDA fibroblasts.
MEM (a medium enriched in amino acids and vitamins, catalog no. 1-31F24-I) and Medium 199 (M199, catalog no. 1-21F22-I) with Earle's Balanced Salts, without phenol red, were purchased from Bioconcept. Fetal Calf Serum was obtained from PAA Laboratories. Basic fibroblast growth factor and epidermal growth factor were purchased from PeproTech. Penicillin-streptomycin-glutamine mix, L-buthionine (S,R)-sulfoximine, (+)-alpha-tocopherol, decylubiquinone, and insulin from bovine pancreas were purchased from Sigma. Trolox (6-Hydroxy-2,5,7,8-tetramethylchromane-2-carboxylic acid) was obtained from Fluka. Idebenone was obtained from Chemo Iberica. Calcein AM was purchased from Anaspec. Cell culture medium was made by combining 125 ml M199 EBS, 50 ml Fetal Calf Serum, 100 U/ml penicillin, 100 microgram/ml streptomycin, 2 mM glutamine, 10 microgram/ml insulin, 10 ng/ml EGF, and 10 ng/ml bFGF; MEM EBS was added to make the volume up to 500 ml. A 10 mM BSO solution was prepared by dissolving 444 mg BSO in 200 ml of medium (Invitrogen, Carlsbad, Ca.) with subsequent filter-sterilization. During the course of the experiments, this solution was stored at +4° C. The cells were obtained from the Coriell Cell Repositories (Camden, N.J.; repository number GM04078) and grown in 10 cm tissue culture plates. Every third day, they were split at a 1:3 ratio.
The test samples were supplied in 1.5 ml glass vials. The compounds were diluted with DMSO, ethanol or PBS to result in a 5 mM stock solution. Once dissolved, they were stored at −20° C. Reference antioxidants (idebenone, decylubiquinone, alpha-tocopherol and Trolox) were dissolved in DMSO.
Test samples were screened according to the following protocol:
A culture with FRDA fibroblasts was started from a 1 ml vial with approximately 500,000 cells stored in liquid nitrogen. Cells were propagated in 10 cm cell culture dishes by splitting every third day in a ratio of 1:3 until nine plates were available. Once confluent, fibroblasts were harvested. For 54 micro titer plates (96 well-MTP) a total of 14.3 million cells (passage eight) were re-suspended in 480 ml medium, corresponding to 100 microliters medium with 3,000 cells/well. The remaining cells were distributed in 10 cm cell culture plates (500,000 cells/plate) for propagation. The plates were incubated overnight at 37° C. in a atmosphere with 95% humidity and 5% CO2 to allow attachment of the cells to the culture plate.
10% DMSO (242.5 microliters) was added to a well of the microtiter plate. The test compounds were unfrozen, and 7.5 microliters of a 5 mM stock solution was dissolved in the well containing 242.5 microliters of 10% DMSO, resulting in a 150 micromolar master solution. Serial dilutions from the master solution were made. The period between the single dilution steps was kept as short as possible (generally less than 30 seconds). At least 4 hours after attachment into MTP, cells were then treated with the various compound dilutions.
Plates were kept overnight in the cell culture incubator. […]

[1] = Homo sapiens, average, compounds of the invention, read-out: Ec50 Average
[2] = Homo sapiens, average of three values, control compounds, read-out: EC50 Average
[3] = Homo sapiens, first of three experiments, read-out: EC50 Value 1
[4] = Homo sapiens, second of three experiments, read-out: EC50 Value 2
[5] = Homo sapiens, third of three experiments, read-out: EC50 Value 3

SMILES | EC50 [1] | other results
CC1=C(C)C(=O)C(CCCc2nc3cc(Cl)ccc3s2)=C(C)C1=O | 0.028 µM | –
CC1=C(C)C(=O)C(CCCc2nc3ccccc3n2C)=C(C)C1=O | 0.025 µM | –
CC1=C(C)C(=O)C(CCCc2nc3cccnc3[nH]2)=C(C)C1=O | 0.113 µM | –
CC1=C(C)C(=O)C(CCc2ncc[nH]2)=C(C)C1=O | 0.225 µM | –
CC1=C(C)C(=O)C(CCCc2nc3cccc(F)c3[nH]2)=C(C)C1=O | 0.018 µM | –
CC1=C(C)C(=O)C(CCCn2cnc3ccccc32)=C(C)C1=O | 0.021 µM | –
CC1=C(C)C(=O)C(CCCc2nc3cc(C(F)(F)F)ccc3o2)=C(C)C1=O | 0.027 µM | –
CC1=C(C)C(=O)C(CCCc2nc3ccc(F)cc3[nH]2)=C(C)C1=O | 0.029 µM | –
CC1=C(C)C(=O)C(CCCc2nc3ccc(C)cc3o2)=C(C)C1=O | 0.007 µM | –
CCCCCCCCCCC1=C(C)C(=O)C(OC)=C(OC)C1=O [decylubiquinone, reference compound] | – | EC50 [2]: 0.038 µM; EC50 [3]: 0.05 µM; EC50 [4]: 0.035 µM; EC50 [5]: 0.03 µM
CC1=C(C)C(=O)C(CCc2nc3ccccc3[nH]2)=C(C)C1=O | 0.02 µM | –
CC1=C(C)C(=O)C(CCc2ncc(C)s2)=C(C)C1=O | 0.027 µM | –
CC1=C(C)C(=O)C(CCCn2c(C)nc3ccccc32)=C(C)C1=O | 0.026 µM | –
CC1=C(C)C(=O)C(CCCc2nc3ccccc3s2)=C(C)C1=O | 0.006 µM | –
CC1=C(C)C(=O)C(CCCc2nc3ccc(C(=O)NCCCO)cc3[nH]2)=C(C)C1=O | > 0.2 µM | –
Cc1c(C)c2c(c(C)c1O)CCC(C)(C(=O)O)O2 (stereo not drawn) [Trolox, 6-Hydroxy-2,5,7,8-tetramethylchromane-2-carboxylic acid, reference compound] | – | EC50 [2]: 8.7 µM; EC50 [3]: 9 µM; EC50 [4]: 9 µM; EC50 [5]: 8 µM
CC1=C(C)C(=O)C(CCCc2nc3cccc(C)c3[nH]2)=C(C)C1=O | 0.007 µM | –

SMILES | EC50 [1] | other results
CC1=C(C)C(=O)C(CCCc2nc3ccc(F)cc3o2)=C(C)C1=O | 0.01 µM | –
CC1=C(C)C(=O)C(CCCc2nc3ccccc3[nH]2)=C(C)C1=O | 0.014 µM | –
CC1=C(C)C(=O)C(CCCc2nc3ccccc3o2)=C(C)C1=O | 0.02 µM | –
CC1=C(C)C(=O)C(CCn2c(C)nc3ccccc32)=C(C)C1=O | 0.049 µM | –
CC1=C(C)C(=O)C(CCCc2nc3ccc(C(=O)N4CCN(C)CC4)cc3[nH]2)=C(C)C1=O | 0.092 µM | –
CC1=C(C)C(=O)C(CCn2cnc3ccccc32)=C(C)C1=O | 0.028 µM | –
CC1=C(C)C(=O)C(CCCc2nc3cc(C)ccc3[nH]2)=C(C)C1=O | 0.021 µM | –
COC1=C(OC)C(=O)C(CCCCCCCCCCO)=C(C)C1=O [Idebenone, reference compound] | – | EC50 [2]: 1.2 µM; EC50 [3]: 1.5 µM; EC50 [4]: 1 µM; EC50 [5]: 1 µM
CC1=C(C)C(=O)C(CCCc2nc3cc(F)ccc3[nH]2)=C(C)C1=O | 0.009 µM | –
CC1=C(C)C(=O)C(CCCc2nc3ccc(Cl)cc3[nH]2)=C(C)C1=O | 0.006 µM | –
CC1=C(C)C(=O)C(CCCc2nc3cc(C(F)(F)F)ccc3[nH]2)=C(C)C1=O | 0.008 µM | –
CC1=C(C)C(=O)C(CCCc2nc3ccc(C(N)=O)cc3[nH]2)=C(C)C1=O | 0.08 µM | –
CC1=C(C)C(=O)C(CCc2nc3ccccc3s2)=C(C)C1=O | 0.006 µM | –
Cc1c(C)c2c(c(C)c1O)CC[C@@](C)(CCC[C@H](C)CCC[C@H](C)CCCC(C)C)O2 [alpha-tocopherol, (+)-alpha-tocopherol, reference compound] | – | EC50 (average of three values, control compounds, read-out: EC50 Average): 0.3 µM; EC50 (first of three experiments, read-out: EC50 Value 1): 0.4 µM; EC50 (second of three experiments, read-out: EC50 Value 2): 0.15 µM; EC50 (third of three experiments, read-out: EC50 Value 3): 0.35 µM
CC1=C(C)C(=O)C(CCc2nc3ccccc3o2)=C(C)C1=O | 0.018 µM | –
CC1=C(C)C(=O)C(CCCn2cncn2)=C(C)C1=O | 0.426 µM | –
